In EP4104817A1, “OPHTHALMIC COMPOSITION COMPRISING ASTRAGALOSIDE IV” (Skeye Pharma GbR, priority 2021, dated 2022):

Assays:
[1] = tested on: Human corneal epithelial cells (hCEC); assay: WST-1 cell viability assay, 72 hours of treatment; assay type: cell-based; details: DMSO-treated control 100 ± 9%, mean ± standard deviation
Experimental: (§1) Human corneal epithelial cells (hCEC; SCCE016; Merck Millipore, Burlington, MA, USA) were cultured in corneal epithelial cell growth medium with supplement mix (LGC Standards, Teddington, United Kingdom). Approximately 10,000 hCECs were seeded onto each well of a 96-well cell-culture dishes (NUNC, Langenselbold, Germany). Confluent cells were used for Water-soluble tetrazolium salt (WST-1) cell proliferation assays (Hoffmann-La Roche AG, Basel, Switzerland). After 24 hours of incubation with 100 µl of corneal epithelial cell growth medium without its' supplement mix (LGC Standards, Teddington, United Kingdom), hCECs were treated with different concentrations of astragaloside IV (AIV; Selleckchem, Houston, TX, USA) dissolved in dimethyl sulfoxide (DMSO; Carl Roth AG, Karlsruhe, Germany). Control groups were treated with DMSO only. Following another 72 hours of incubation, the cells were incubated with the WST-1 solution for 30 minutes. Substrate turnover was measured with an ELISA reader at 450 nm (Spectramax 190; Molecular Devices, Sunnyvale, CA, USA) and a reference at 690 nm.

[2] = tested on: hCEC; assay: BrdU ELISA cell proliferation assay, 24 hours of treatment; assay type: cell-based; details: Homo sapiens, compared to DMSO-treated control, mean ± standard deviation
Experimental: Proliferation of hCEC was determined using a 5-bromo-2'-deoxyuridine (BrdU) ELISA in accordance with the manufacturers' recommendations (Merck KGaA, Darmstadt, Germany). In brief, approximately 7,000 cells were seeded onto a 96-well cell culture plate and incubated for 24h to achieve complete adherence of the cells. After 24 hours of incubation with 100 µl of corneal epithelial cell growth medium without its' supplement mix, hCECs were treated with astragaloside IV dissolved in DMSO. Following another 24 hours of incubation with BrdU labeling solution, cells were fixed and incubated with anti-BrdU antibodies according to the manufacturer's recommendations. BrdU incorporation into the DNA of hCECs was quantified by absorbance measurement at 450 nm using the ELISA reader Spectramax 190 (Molecular Devices, Sunnyvale, CA, USA).

[3] = tested on: hCEC; assay: Cell scratch assay (migration / wound healing in vitro), follow-up up to 72 hours; assay type: cell-based, Human; details: 1 µM, 2.5 µM; follow-up of 72 hours; versus DMSO-only control; p > 0.05 for all groups
Experimental: To analyze hCEC migration in vitro, cells were cultured in corneal epithelial cell growth medium with supplement mix until confluence of the cells of a 6-well cell culture plate. Following an incubation period of 24 hours in cell culture medium without supplements, 5 linear scratches were performed in each well using a 200 µl pipette tip (Eppendorf AG, Hamburg, Germany). The hCECs were then incubated prospectively under treatment with astragaloside IV or DMSO as a control for up to 72 hours. Reference images were acquired at the beginning of the incubation period using the phase contrast mode on an Axio Observer 7 (Carl Zeiss AG, Jena, Germany). Every 24 hours, follow-up images of 4-5 different scratch sections were acquired. The size of the wound area was analyzed using a semi-automated analysis tool in ImageJ 1.53a (National Institute of Health, Bethesda, MD, USA).

[4] = tested on: bovine corneas; assay: Corneal erosion assay ex vivo (epithelial wound healing), follow-up 72 hours; details: 1 µM or 2.5 µM, every 12 hours up to 72 hours, versus DMSO-treated control, p > 0.05 for all groups
Experimental: Furthermore, corneal epithelial cell wound healing was determined on bovine corneas ex vivo. Bovine globes were obtained from a local butchery following approval by the authority for waste management of animal carcasses (ID: DE 09 162 0066-219) and processed within 12 hours post-mortem. The bovine globes were washed in 10% w/v povidone-iodine for 5 minutes. A circular corneal epithelial erosion was created using an 8 mm trephine and a hockey knife (Katena Products Inc., Parsippany, NJ, USA). Subsequently, a sclerocorneal ring was excised with eye scissors (Katena Products Inc., Parsippany, NJ, USA) and transferred to a 60 mm cell culture plate. To acquire reference images of the corneal erosion, the wound area was stained with a 0.8 mg/ml fluorescein sodium solution and illuminated with blue light (approximate wavelength 490 nm). Images were acquired using a distance-fixed digital single lens reflex camera equipped with a macro lens (Canon Inc., Tokyo, Japan). Consequently, the sclerocorneal rings were incubated in Dulbecco's Modified Eagle's Medium (Bio&SELL GmbH, Feucht, Germany) supplemented with 50 IU penicillin/ml and 50 µg streptomycin/ml (Merck Millipore, Burlington, MA, USA) and astragaloside IV or DMSO only. Follow-up images were acquired every 12 hours, the cell culture medium was renewed daily.

[5] = tested on: human corneal epithelial cells; assay: WST-1 cell viability assay under oxidative stress (H2O2 100 µM, 24 hours); assay type: cell-based; details: H2O2 group 79 ± 14%, untreated control 100 ± 3%
Experimental: as §1
To determine potential anti-oxidative effects of astragaloside IV, hCECs were incubated and treated analogous to the above-mentioned WST-1 cell proliferation assay with minor modifications. […]

[6] = tested on: Intracellular, mitochondrial reactive oxygen species (ROS); assay: Dihydrorhodamine-123 (DHR-123) fluorescence assay of ROS under oxidative stress (H2O2, 2 hours); assay type: cell-based; details: Homo sapiens, HCEC, hCECs, percent of DMSO control, H2O2 group 149 ± 9%, p = 0.0006 vs H2O2
Experimental: Intracellular, mitochondrial reactive oxygen species (ROS) were assessed using the cell membrane permeable dihydrorhodamine-123 (DHR-123) assay (D23806; ThermoFisher Scientific, Waltham, MA, USA) according to the manufacturer's instructions. Measurements were made after exposing human corneal epithelial cells to H2O2, astragaloside IV or DMSO for 2 hours. For ROS staining, cells were incubated with 10 µM DHR-123 for 15 minutes. Nucleus staining was performed using Hoechst 33342 nucleic acid stain (H1399; ThermoFisher Scientific, Waltham, MA, USA). Randomly, a minimum of 3 images of every treatment group were acquired with a 20x fluorescence objective using the aforementioned Axio Observer 7. Results were expressed in percent of fluorescence intensity relative to the baseline measurement in the DMSO control group. For quantification of the fluorescence signals, the microscope software ZEN 3.0 (Carl Zeiss AG, Jena, Germany) was used.

## CC(C)(O)C1CCC(C)(C2C(O)CC3(C)C4CC(OC5OC(CO)C(O)C(O)C5O)C5C(C)(C)C(OC6OCC(O)C(O)C6O)CCC56CC46CCC23C)O1 [astragaloside IV, (2R,3R,4S,5S,6R)-2-(((2aR,3R,4R,5aS,7R,11aR)-4-hydroxy-3-((2R,5S)-5-(2-hydroxypropan-2-yl)-2-methyltetrahydrofuran-2-yl)-2a,5a,8,8-tetramethyl-9-(((2S,3R,4S,5R)-3,4,5-trihydroxytetrahydro-2H-pyran-2-yl)oxy)hexadecahydrocyclopenta[a]cyclopropa[e]phenanthren-7-yl)oxy)-6-(hydroxymethyl)tetrahydro-2H-pyran-3,4,5-triol]
[1]; 1 µM, p < 0.0001
  viability at 1 µM: 154 ± 33%
[1]; 2.5 µM, p < 0.0001
  viability at 2.5 µM: 149 ± 27%
[1]; 5 µM, p = 0.0003
  viability at 5 µM: 138 ± 22%
[1]; 10 µM, non-significant decrease, p > 0.9999
  viability at 10 µM: 89 ± 5%
[2]; 1 µM, p = 0.0028, read-out: corneal epithelial cell proliferation
  activity at 1 µM: 125 ± 26%
[2]; 2.5 µM, p = 0.0017, read-out: corneal epithelial cell proliferation
  activity at 2.5 µM: 126 ± 30%
[2]; 5 µM, not significant, p > 0.9999, read-out: corneal epithelial cell proliferation
  activity at 5 µM: 112 ± 14%
[3]
  corneal epithelial cell migration (scratched hCEC area over time): none of the treatment groups showed a significant decrease of corneal epithelial cell migration
[4]
  speed of re-epithelialization: did not show any significant difference in the speed of re-epithelialization
[5]; 1 µM with H2O2 100 µM, p = 0.0044 vs H2O2
  viability at 1 µM: 91 ± 4%
[5]; 2.5 µM with H2O2 100 µM, p = 0.0002 vs H2O2
  viability at 2.5 µM: 95 ± 6%
[6]; 1 µM with H2O2 100 µM
  activity at 1 µM: 94 ± 7%
[6]; 2.5 µM with H2O2 100 µM
  activity at 2.5 µM: 94 ± 15%
